In publication PMC7688903 (Frontiers in Microbiology, 2020):
Values after ≈ are worked out from the molar mass of the structure shown. Where a SMILES comes first, the peptide text is derived from it. Where no end group is shown, it is not given here. [ ]: non-standard residue; d: D form. hArg = N=C(N)NCCCC[C@H](N)C(=O)O; 2Thi = N[C@@H](Cc1cccs1)C(=O)O

Tests used:
[1] = test system: E. coli ATCC 25922; format: cell-based, Escherichia coli; conditions: ATCC 25922, 20 h
Procedure: (§1) The antimicrobial activities of the peptides were tested against E. coli ATCC 25922, P. aeruginosa ATCC 27853, carbapenem-resistant P. aeruginosa SIPI-012, A. baumannii ATCC 19606, carbapenem-resistant A. baumannii SIPI-025, S. aureus ATCC 25923, and C. albicans ATCC 10231. The minimum inhibitory concentration (MIC) values were determined using the microdilution method according to Clinical and Laboratory Standards Institute guidelines ([CLSI, 2008], [2012]). The peptides were dissolved in 10 mM PB to a concentration of 1280 μg/mL as stock solutions.
(§2) For inoculum preparation of bacteria, morphologically similar colonies selected from fresh MH agar plates were transferred using a loop into approximately 10 mL of MH broth in a capped test tube and vortexed. The suspension was adjusted with MH broth to achieve a turbidity equivalent to a 0.5 McFarland standard (BaSO4 solution prepared spectrophotometrically). A working suspension was prepared by making a 1:15 dilution followed by a 1:20 dilution of the stock suspension with MH broth medium to obtain approximately 5 × 10^5 CFU/mL. For inoculum preparation of yeast, five fresh colonies of approximately 1 mm diameter were picked from 24-hour-old cultures of C. albicans and suspended in 5 mL of sterile 0.85% saline. The resulting suspension was vortexed and the cell density was adjusted by adding sufficient sterile saline to achieve a turbidity equivalent to a 0.5 McFarland standard. A working suspension was prepared by making a 1:100 dilution followed by a 1:20 dilution of the stock suspension with RPMI 1640 broth medium to obtain 0.5 × 10^3 to 2.5 × 10^3 CFU/mL. Intermediate twofold dilutions of the peptides were prepared in MH broth and RPMI 1640 medium, and 90 μL aliquots were added to each well in addition to 10 μL of the inoculum prepared above.
(§3) Each plate included a growth control well and a sterility (uninoculated) control well. Colistin, vancomycin hydrochloride, and amphotericin B were used as positive controls for gram-negative bacteria, gram-positive bacteria, and fungi, respectively. The bacterial and fungal plates were incubated at 37°C for 20 h and 35°C for 48 h, respectively, both under ambient atmosphere. The inhibition of microbial growth was assessed visually. The MICs were determined from independent triplicate assays.

[2] = test system: P. aeruginosa ATCC 27853; format: cell-based, Pseudomonas aeruginosa; conditions: ATCC 27853, 20 h
Procedure: as §1, §2, §3

[3] = test system: carbapenem-resistant P. aeruginosa (CRPA) SIPI-012; format: cell-based, Pseudomonas aeruginosa; conditions: carbapenem-resistant (CRPA) SIPI-012, 20 h
Procedure: as §1, §2, §3

[4] = test system: A. baumannii ATCC 19606; format: cell-based, Acinetobacter baumannii; conditions: ATCC 19606, 20 h
Procedure: as §1, §2, §3

[5] = test system: carbapenem-resistant A. baumannii (CRAB) SIPI-025; format: cell-based, Acinetobacter baumannii; conditions: carbapenem-resistant (CRAB) SIPI-025, 20 h
Procedure: as §1, §2, §3

[6] = test system: S. aureus ATCC 25923; assay: microbe, parasite or virus in culture; format: cell-based, Staphylococcus aureus; conditions: ATCC 25923, 20 h
Procedure: as §1, §2, §3

[7] = test system: C. albicans ATCC 10231; assay: microbe, parasite or virus in culture; format: cell-based, Candida albicans; conditions: ATCC 10231, 48 h
Procedure: as §1, §2, §3

[8] = test system: proteases secreted by S. aureus ATCC 25923; assay: in vitro; conditions: for remaining at 24 h, 0.5 mg/mL: Staphylococcus aureus, S. aureus ATCC 25923 culture supernatant, pH 8; for Percent of remained peptide amount after incubation (%): S. aureus ATCC 25923 culture supernatant (MH broth), pH 8.0, 0.22 μm filtered, peptide 0.5 mg/mL, 37°C, 24 h, RP-HPLC
Procedure: The stabilities of the peptides toward proteases secreted by E. coli ATCC 25922, P. aeruginosa ATCC 27853, A. baumannii ATCC 19606, S. aureus ATCC 25923, and C. albicans ATCC 10231 were also examined. Microbial supernatants were prepared by resuspending single colonies of each strain in 20 mL of an appropriate culture medium followed by incubation at 37°C overnight. MH broth and 2% tryptone/2% dextrose were used as the culture media for bacteria and yeast, respectively. Each culture was then centrifuged at 12,000 × g for 10 min and the supernatant was adjusted to pH 8.0 with HCl or NaOH and then filtered through a 0.22 μm sterile filter membrane ([Zaet et al., 2017]). The peptides were then dissolved in the filtered supernatants to a concentration of 0.5 mg/mL, and the peptide-free supernatants were used as negative controls. The samples were incubated at 37°C for 24 h in a water bath and then analyzed by RP-HPLC as described above.

[9] = test system: human erythrocytes; assay: Hemolytic activity assay; format: cell-based; conditions: human RBC in PB, 37°C, 1 h, OD420, total lysis control 0.1% SDS, three technical replicates
Procedure: Whole blood was obtained from a healthy volunteer. The red blood cells (RBC) were then centrifuged (800 × g, 10 min), washed twice with PB, resuspended in 1 mL of PB, and incubated with various concentrations of the peptides (32–128 μM) at 37°C for 1 h. As a positive control, total lysis of the RBC was accomplished by incubation with 0.1% SDS. For each condition, three technical replicates were performed. After incubation, the RBC were centrifuged at 800 × g for 10 min and the amount of hemoglobin released into the supernatant was determined by measuring the optical density OD420 using a SpectraMax i3x microplate reader (Molecular Devices) ([Zaet et al., 2017]).

[10] = test system: RAW 264.7 cells; assay: Cell viability assay (MTT); format: cell-based, mouse; conditions: 1–128 μM peptide in DMEM with 4% FBS, 42 h, 595 nm, triplicate
Procedure: The peptides were dissolved in ddH2O to a concentration of 256 μM. RAW 264.7 cells were cultured in 100 μL of DMEM containing 10% FBS and seeded at a density of 1 × 10^4 cells in a 96-well culture plate. The plate was incubated at 37°C under 5% CO2 atmosphere overnight. After attaining 80% confluency, the cells were treated with various concentrations of the peptides (1–128 μM) dissolved in DMEM containing 4% FBS for 42 h. Cytotoxicity was determined using the MTT tetrazolium reduction assay and quantified spectrophotometrically at 595 nm using a SpectraMax i3x microplate reader. The cell viability was calculated with respect to control samples treated only with DMEM containing 4% FBS ([Khara et al., 2016]). Each test was done in triplicate and the concentration required for 50% inhibition of viability (IC50) was determined.

[11] = test system: human plasma proteases; assay: in vitro
Procedure: The peptides were mixed with plasma from healthy volunteers to a final concentration of 0.1 mg/mL and incubated at 37°C. Aliquots (20 or 40 μL) were removed after 0, 2, 4, 6, 8, 12, 24, and 36 h, mixed with 0.05% TFA to a final concentration of 0.01 mg/mL, and incubated on ice for 10 min. After centrifugation (12,000 × g, 5 min), the supernatant was stored at −20°C. The samples were analyzed as described in section “Hydrophobicity” and quantified as described in section “Stability Toward Tryptic Degradation.” All stability tests were performed at least in triplicate. The identities of the metabolites after 12 h of degradation by plasma proteases were determined by LC-MS on a Waters Acquity UPLC-QDa system.

Molecule	MIC [1]	MIC [2]	MIC [3]	MIC [4]	MIC [5]	MIC [6]	MIC [7]	remaining at 24 h, 0.5 mg/mL [8]	Hemolysis rate (%) ([9]; 64 μM)	Hemolysis rate (%) ([9]; 128 μM)	IC50 [10]	metabolised at 2 h, 0.1 mg/mL [11]	metabolised at 4 h, 0.1 mg/mL [11]	Percent of remained peptide amount after incubation (%) [8]
CC(C)C[C@H](NC(=O)[C@H](CCCCN)NC(=O)[C@H](CCCCN)NC(=O)[C@H](Cc1ccccc1)NC(=O)[C@H](CC(C)C)NC(=O)[C@H](CCCNC(=N)N)NC(=O)[C@@H](N)CCCCN)C(=O)N[C@@H](CC(C)C)C(=O)N[C@@H](CCCCN)C(=O)N[C@@H](Cc1ccc(O)cc1)C(=O)N[C@@H](CC(C)C)C(=O)N[C@@H](CCCNC(=N)N)C(=O)N[C@H](CCCCN)C(=O)N[C@@H](Cc1ccccc1)C(N)=O [DP03] (H-KRLFKKLLKYLR[dK]F-NH2)	1 µg/mL (≈ 0.532 µM)	1 µg/mL (≈ 0.532 µM)	8 µg/mL (≈ 4.25 µM)	2 µg/mL (≈ 1.06 µM)	2 µg/mL (≈ 1.06 µM)	1 µg/mL (≈ 0.532 µM)	4 µg/mL (≈ 2.13 µM)	73.5 ± 4.83%	41.96 ± 4.14%	51.55 ± 3.89%	45 ± 5.96 µM	> 40%	> 50%	–
CC(C)C[C@H](NC(=O)[C@H](Cc1ccc(O)cc1)NC(=O)[C@H](CCCCN)NC(=O)[C@H](CC(C)C)NC(=O)[C@H](CC(C)C)NC(=O)[C@@H](CCCCN)NC(=O)[C@@H](CCCCN)NC(=O)[C@H](Cc1ccccc1)NC(=O)[C@H](CC(C)C)NC(=O)[C@H](CCCNC(=N)N)NC(=O)[C@@H](N)CCCCN)C(=O)N[C@@H](CCCNC(=N)N)C(=O)N[C@H](CCCCN)C(=O)N[C@@H](Cc1ccccc1)C(N)=O [DP04] (H-KRLF[dK][dK]LLKYLR[dK]F-NH2)	1 µg/mL (≈ 0.532 µM)	1 µg/mL (≈ 0.532 µM)	4 µg/mL (≈ 2.13 µM)	2 µg/mL (≈ 1.06 µM)	1 µg/mL (≈ 0.532 µM)	0.5 µg/mL (≈ 0.266 µM)	4 µg/mL (≈ 2.13 µM)	63.7 ± 8.1%	38.84 ± 1.61%	58.26 ± 1.84%	34.7 ± 3.69 µM	> 40%	> 50%	–
CC(C)C[C@H](NC(=O)[C@H](Cc1ccc(O)cc1)NC(=O)[C@H](CCCCN)NC(=O)[C@H](CC(C)C)NC(=O)[C@H](CC(C)C)NC(=O)[C@H](CCCCN)NC(=O)[C@H](CCCCN)NC(=O)[C@H](Cc1cccs1)NC(=O)[C@H](CC(C)C)NC(=O)[C@H](CCCNC(=N)N)NC(=O)[C@@H](N)CCCCN)C(=O)N[C@@H](CCCNC(=N)N)C(=O)N[C@@H](CCCCN)C(=O)N[C@@H](Cc1cccs1)C(N)=O [UP07] (H-KRL[2Thi]KKLLKYLRK[2Thi]-NH2)	1 µg/mL (≈ 0.528 µM)	1 µg/mL (≈ 0.528 µM)	4 µg/mL (≈ 2.11 µM)	2 µg/mL (≈ 1.06 µM)	2 µg/mL (≈ 1.06 µM)	1 µg/mL (≈ 0.528 µM)	4 µg/mL (≈ 2.11 µM)	–	18.23 ± 2.76 %	30.10 ± 2.61 %	17.5 ± 2.99 µM	> 40%	> 50%	24.86 ± 3.88%
CC(C)C[C@H](NC(=O)[C@H](Cc1ccc(O)cc1)NC(=O)[C@H](CCCCN)NC(=O)[C@H](CC(C)C)NC(=O)[C@H](CC(C)C)NC(=O)[C@H](CCCCN)NC(=O)[C@H](CCCCN)NC(=O)[C@H](Cc1ccccc1)NC(=O)[C@H](CC(C)C)NC(=O)[C@H](CCCNC(=N)N)NC(=O)[C@@H](N)CCCCN)C(=O)N[C@@H](CCCNC(=N)N)C(=O)N[C@@H](CCCCN)C(=O)N[C@@H](Cc1cccs1)C(N)=O [UP08] (H-KRLFKKLLKYLRK[2Thi]-NH2)	2 µg/mL (≈ 1.06 µM)	2 µg/mL (≈ 1.06 µM)	4 µg/mL (≈ 2.12 µM)	2 µg/mL (≈ 1.06 µM)	2 µg/mL (≈ 1.06 µM)	1 µg/mL (≈ 0.53 µM)	4 µg/mL (≈ 2.12 µM)	–	52.49 ± 2.25 %	86.84 ± 1.24 %	14.6 ± 2.96 µM	> 40%	> 50%	26.85 ± 2.61%
CC(C)C[C@H](NC(=O)[C@H](Cc1ccc(O)cc1)NC(=O)[C@H](CCCCN)NC(=O)[C@H](CC(C)C)NC(=O)[C@H](CC(C)C)NC(=O)[C@H](CCCCN)NC(=O)[C@H](CCCCN)NC(=O)[C@H](Cc1ccccc1)NC(=O)[C@H](CC(C)C)NC(=O)[C@H](CCCNC(=N)N)NC(=O)[C@@H](N)CCCCNC(=N)N)C(=O)N[C@@H](CCCNC(=N)N)C(=O)N[C@@H](CCCCN)C(=O)N[C@@H](Cc1cccs1)C(N)=O [UP10] (H-[hArg]RLFKKLLKYLRK[2Thi]-NH2)	2 µg/mL (≈ 1.04 µM)	1 µg/mL (≈ 0.519 µM)	4 µg/mL (≈ 2.07 µM)	2 µg/mL (≈ 1.04 µM)	2 µg/mL (≈ 1.04 µM)	0.5 µg/mL (≈ 0.259 µM)	4 µg/mL (≈ 2.07 µM)	31.6 ± 7.81%	56.82 ± 2.62 %	95.02 ± 1.84 %	22.8 ± 4.65 µM	> 40%	> 50%	–
KRLFKRLFKYLRRF-NH2 [LP01]	2 µg/mL	1 µg/mL	4 µg/mL	2 µg/mL	2 µg/mL	1 µg/mL	4 µg/mL	33.3 ± 5.69%	29.58 ± 0.83%	37.14 ± 1.29 %	16.6 ± 3.79 µM	> 40%	> 50%	–
RRIFKRLFKYLRRF-NH2 [LP02]	2 µg/mL	2 µg/mL	8 µg/mL	2 µg/mL	4 µg/mL	1 µg/mL	8 µg/mL	19.7 ± 8.58%	24.18 ± 2.01%	45.40 ± 2.40%	14.4 ± 1.44 µM	> 40%	> 50%	–
